Results on 66 compounds are retold here after PubChem BioAssay AID449750 (Broad Institute, 2010).

The source made the active and inactive calls. How the calls were made is not given here. Some results are limits rather than exact numbers.

A short description of this assay: non-covalent RecA intein splicing inhibitors, dose response, biochemical, cell-free, fluorescence, secondary screen (AID 449750).
`CCOC(=O)CSc1n[nH]c(NC(=O)c2cccc(C(F)(F)F)c2)n1`: the AC50 was > 38 µM (inactive).

With `Cc1ccc(-n2nc(C)c3c2OC(N)=C(C#N)C3c2cccs2)cc1` (stereo unspecified), the concentration at half-maximal activity (AC50) was 21.1 µM.

With `O=C1C=C(Nc2cccc3cccnc23)c2ccccc2C1=O`, the half-maximal activity concentration (AC50) was 24.2 µM.

On to `COc1ccc(N(Cc2cc(=O)[nH]c3ccccc23)C(=O)CCl)cc1`, for which the AC50 is 8.33 µM.

Consider `N#Cc1c(-c2ccccc2)nc(SCC(=O)N2c3ccccc3Sc3ccccc32)[nH]c1=O`, for which the AC50 is 8.24 µM.

`N#Cc1c(N2CCCCC2)nc(N)c2c(N)nc(SCC(=O)O)cc12`: the AC50 is > 38 µM (inactive).

As to `CCOC(=O)c1nnc(-c2cccs2)nc1Oc1ccc(Cl)cc1`, the AC50 was > 38 µM (inactive).

With `Cc1cccc(CS(=O)(=O)c2ncc(Cl)c(C(=O)Nc3nnc(C(C)C)s3)n2)c1`, the AC50 is 2.13 µM.

`CCOc1ccc(S(=O)(=O)NCc2cccnc2)cc1C`: the AC50 is > 38 µM (inactive).

Turning to `COC(=O)CCSc1cc(NCCOC(C)=O)c([N+](=O)[O-])c2nonc12`, the AC50 was > 38 µM (inactive).

Regarding `CN1CCN(C2=C(Cl)C(=O)N(c3ccc(Cl)cc3)C2=O)CC1`, the AC50 is 3.49 µM.

For `NC1=NN(c2cccc(C(=O)O)c2)C(=O)C1`, the AC50 was 29.4 µM.

`C/C(CC(=O)Nc1cc(C)ccn1)=N\NC(=O)c1ccccc1C`: the AC50 is > 38 µM (inactive).

`Cc1ccccc1NC(=O)C(=Cc1ccc(C(=O)O)cc1)C(=O)Nc1ccccc1C`: the AC50 was > 38 µM (inactive).

Turning to `O=C1C(Cl)=C(NCC2CCCO2)C(=O)N1c1ccccc1` (stereo unspecified), the AC50 is > 38 µM (inactive).

With `CCn1c(Cl)c(C=O)s/c1=N\S(=O)(=O)c1ccccc1`, the concentration at half-maximal activity (AC50) was 2.44 µM.

`CCCCCCCCCCCCCCCC[N+](C)(C)C`: the concentration at half-maximal activity (AC50) was 12.1 µM.

As to `O=C(c1cccs1)[C@@H]1[C@@H]2C(=O)N(Cc3ccc4c(c3)OCO4)C(=O)[C@@H]2C2c3ccccc3C=CN21` (stereo partly specified), the AC50 is 3.81 µM.

As to `Cc1cccc(CS(=O)(=O)c2ncc(Cl)c(C(=O)NCc3ccc4c(c3)OCO4)n2)c1`, the AC50 is > 38 µM (inactive).

For the compound `O=c1c2ccccc2nc(/C=C/c2cccnc2)n1Cc1ccccc1`, the AC50 was 13.6 µM.

Consider `CC[C@@H](CO)NC(=O)[C@@H]1C=C2c3cccc4c3c(cn4C)C[C@H]2N(C)C1`, for which the AC50 was > 38 µM (inactive).

In the case of `CCCCn1c(NC(=O)c2ccc(Br)o2)c(S(=O)(=O)c2ccccc2)c2nc3ccccc3nc21`, the AC50 was > 38 µM (inactive).

With `CCCCCCCCCCOC(=O)Cn1c(COc2cccc(OC)c2)[n+](C)c2ccccc21`, the AC50 was 9.12 µM.

Consider `O=[N+]([O-])c1cccc(C=Nc2cccc3ccccc23)c1O`, for which the AC50 is > 38 µM (inactive).

For the compound `CC(C)(C)C1CCc2sc(C(=O)NNC(=O)CCl)cc2C1` (stereo unspecified), the AC50 was 1.94 µM.

On to `O=C1CCN(N=Nc2cccc(Cl)c2)N1`, for which the AC50 was > 38 µM (inactive).

Regarding `O=C(Oc1ccc(-c2nnco2)cc1)c1ccco1`, the AC50 was > 38 µM (inactive).

As to `COc1cc(N=Nc2cccc(S(N)(=O)=O)c2)c2ccccc2c1N`, the AC50 was 34.1 µM.

In the case of `Cc1ccc2nc(N/N=C\c3ccc([N+](=O)[O-])o3)nc(-c3ccccc3)c2c1`, the AC50 was > 38 µM (inactive).

Turning to `CCn1c(-c2ccccc2)c(C(=O)CCl)c2ccccc21`, the AC50 was 6.01 µM.

Turning to `O=C(CCl)N1c2ccccc2OCC1c1ccccc1` (stereo unspecified), the AC50 was 12.7 µM.

Consider `[O-]C1=N/[N+](=C/c2ccccc2Cl)CC1`, for which the AC50 was > 38 µM (inactive).

On to `CSc1nc(-c2ccccc2)nn1C(=O)c1ccc(Cl)cc1`, for which the AC50 was > 38 µM (inactive).

As to `CCOC(=O)N/N=C\c1ccc(OC(=O)c2ccco2)cc1`, the AC50 was > 38 µM (inactive).

Regarding `Cc1ccccc1N(Cc1cc(=O)[nH]c2ccccc12)C(=O)CCl`, the AC50 was 8.32 µM.

Consider `CC(C)c1ccc(S(=O)(=O)/N=C2\C=C(NS(=O)(=O)c3ccccc3)C(=O)c3ccccc32)cc1`, for which the AC50 is 6.05 µM.

Consider `CC(C)c1[nH]nc2c1C(c1cccc(OC(=O)N3CCOCC3)c1)C(C#N)=C(N)O2` (stereo unspecified), for which the AC50 was > 38 µM (inactive).

As to `Cc1ccsc1/C=N/NC(=O)Cc1cc(=O)[nH][nH]1`, the AC50 was 5.95 µM.

Consider `Cc1ccc(S(=O)(=O)N[C@@H](CCCCN)C(=O)CCl)cc1`, for which the AC50 is > 38 µM (inactive).

For the compound `O=C(Cc1ccccc1F)Nc1nc2ccccc2[nH]1`, the AC50 is > 38 µM (inactive).

On to `Cc1cc(C)cc(S(=O)(=O)c2cnc3ccccc3n2)c1`, for which the AC50 was > 38 µM (inactive).

Take `CC1=C(CC(=O)c2ccccc2)C(=O)c2ccccc2C1=O`: the AC50 was 16.6 µM.

Regarding `Cc1[nH]n(-c2ccccc2)c(=O)c1C(c1ccc(C(=O)O)cc1)c1c(C)[nH]n(-c2ccccc2)c1=O`, the AC50 is 2.11 µM.

Take `CC(C)(C)c1csc(Sc2ccc([N+](=O)[O-])cn2)n1`: the AC50 is 14.2 µM.

For the compound `CCCc1[nH]nc2c1C(c1ccsc1)C(C#N)=C(N)O2` (stereo unspecified), the AC50 was > 38 µM (inactive).

Turning to `CC(=O)Oc1ccc2ccccc2c1C(NC(=O)Cc1ccccc1)c1ccc(Cl)cc1` (stereo unspecified), the AC50 is 4.04 µM.

On to `Cc1ccc(CN=Cc2[nH]c3ccc(Br)c(Cl)c3c2O)cc1`, for which the AC50 was 22.9 µM.

In the case of `O=C(CCl)Nc1sccc1C(=O)c1ccccc1`, the AC50 is 14 µM.

As to `Cc1ccc(NC(=O)COc2cccc(/C=C3\SC(=S)N(CCC(=O)O)C3=O)c2)cc1Cl`, the concentration at half-maximal activity (AC50) was 10.2 µM.

With `COC(CNC(=O)c1ccc2c3c(onc13)-c1ccccc1C2=O)OC`, the AC50 is > 38 µM (inactive).

On to `NS(=O)(=O)c1ccc(N=Nc2ccc(=O)[nH]c2O)cc1`, for which the AC50 is 24.6 µM.

Take `CC(C)CCn1c(Sc2nc3ccccc3o2)nc2c1c(=O)[nH]c(=O)n2C`: the AC50 was 5.08 µM.

For the compound `CS(=O)(=O)c1nc(-c2ccco2)cc(C(F)(F)F)n1`, the AC50 was > 38 µM (inactive).

Consider `CCN(CC)C(=O)c1ccc2c(c1[N+](=O)[O-])C(=O)c1ccccc1C2=O`, for which the AC50 is > 38 µM (inactive).

In the case of `O=C(Oc1ccccc1N1C(=O)CCC1=O)c1ccco1`, the AC50 is > 38 µM (inactive).

In the case of `CC(C)(C)c1[nH]nc2c1C(c1ccco1)C(C#N)=C(N)O2` (stereo unspecified), the AC50 was 38.8 µM.

Consider `Cc1ccc(NC(=O)c2nc(S(=O)(=O)Cc3ccccc3C)ncc2Cl)cc1C`, for which the AC50 is > 38 µM (inactive).

Take `O=C(CN1CCN(S(=O)(=O)c2ccc(Cl)cc2)CC1)Nc1ccc2c(c1)OCO2`: the AC50 was > 38 µM (inactive).

Take `Cc1cc(C)n(-c2ccc([N+](=O)[O-])cc2)n1`: the AC50 is > 38 µM (inactive).

For `CC1=NN(c2ccc(F)cc2)C(=O)C1C(c1cccc(O)c1)c1c(C)[nH]n(-c2ccc(F)cc2)c1=O` (stereo unspecified), the AC50 is 2.89 µM.

As for `Cc1ccc(Sc2ccc(NC(=O)CCl)cc2)c(C)c1`, the AC50 is 1.18 µM.

Consider `CC(C)(C)c1cc(NC(=O)CCl)n(-c2ccccc2)n1`, for which the AC50 was 22.2 µM.

As for `Cc1ccc2c(c1)-c1c(ssc1=S)C(C)(C)N2C(=O)CSC1=NCCS1`, the half-maximal activity concentration (AC50) is 32.5 µM.

Turning to `Cc1ccc(NC(=O)c2cnc(SCC(=O)NCC3CCCO3)n(C)c2=O)cc1` (stereo unspecified), the AC50 is > 38 µM (inactive).

In the case of `Cc1nc2ccccc2c2c1C(=O)NC2=O`, the AC50 was > 38 µM (inactive).

Consider `CC(C)(C)c1ccc(/C=C(\c2nc3ccccc3[nH]2)S(=O)(=O)c2ccccc2)cc1`, for which the AC50 is 39.1 µM.
